Measured values taken from patent EP0345251B1 (priority 1986, dated 1988).

Assays:
leukaemia L1210 = test: Antitumour activity against leukaemia L1210 (survival); format: in vivo, BDF₁ mice; design: MST: unit not given here; details: for MST: median survival time; for T/C: treated/control; for SURVIVAL (mean days) / SURVIVORS No. at 60 d: in combination CRON 200 mg/kg, CR same as MTZ
Protocol: Antitumour effects. Male Swiss Schneider mice of 27g body weight were used for the sarcoma S180 experiments: female C₅₇Bl mice of 20g body weight were used for the B16 melanoma experiments; […]; and C₅₇Bl mice of 20g body weight were used for the Lewis lung experiments.
L1210. Spleens were removed from animals 7 days after inoculation of L1210 cells and these spleens were finely minced with 1:100 isotonic saline. 0.1 ml of this spleen and leukaemia L1210 cell suspension was then injected subcutaneously into the flank of each BDF₁.

[1] = test system: Lewis lung carcinoma (3LL); test: Lewis lung carcinoma (3LL): primary tumour and lung secondaries; format: in vivo, C₅₇Bl mice
Protocol: Antitumour effects. Male Swiss Schneider mice of 27g body weight were used for the sarcoma S180 experiments: female C₅₇Bl mice of 20g body weight were used for the B16 melanoma experiments; male BDF₁ mice of 30g body weight were used for the L1210 leukaemia experiments; and C₅₇Bl mice of 20g body weight were used for the Lewis lung experiments.
Lewis lung (3LL). This tumour was prepared for inoculation in a manner identical to that used for the S180 sarcoma.
This tumour metastasizes to the lungs when implanted into the flanks of mice. […]

[2] = Mitozantrone toxicity in mice, with and without Cronassial; format: in vivo, Male Swiss Schneider mice; details: host SN
Protocol: (§1) Toxicity acute and chronic. Male Swiss Schneider mice with a body weight of 25-30g were used for these experiments. Mice were usually kept in groups of not more than 8 in standard cages. Food and water were supplied ad libidum. The animals were kept in experimental rooms under closely controlled conditions. They were weighed daily. For acute vincristine toxicity in chicks, 48 hour old SPF chicks were used.
Cronassial®. A solution of this substance, which is a mixture of four gangliosides, was prepared by the addition of a volume of sterile distilled water sufficient to give a concentration of 200 mg/kg in a volume of 0.2 ml. This dose was given to mice of approximately 20g.
(§2) Mitozantrone was made up in an appropriate manner. It was given in a volume of 0.2ml when the injections were given intraperitoneally but when given by another route, the volumes given were indicated in the appropriate Table.

[3] = Mitozantrone toxicity in mice bearing S180, with and without Cronassial; format: in vivo, Male Swiss Schneider mice; details: chronic, host SN (+S180), MTZ 5 mg/kg ip days 3.4.5
Protocol: as §1
Sarcoma S180. This tumour has been transplanted in the same strain of mouse for more than 10 years.
Transplantation was done by subcutaneous inoculation of 0.1 ml of a tumour mash made by finely mincing viable tumour tissue and passing it repeatedly through a 26 gauge needle into a sterile Petri dish. 0.1 ml of penicillin (20,000 m/ml) and streptomycin (20,000 m/ml) were added to the mash, as well as neomycin (5 mgs).
as §2

[4] = Blood counts (Coulter counter) after mitozantrone, with and without Cronassial; format: in vivo; details: blood by cardiac puncture
[5] = L1210, host BDF1, MTZ 5 mg/kg ip days 0.1.2
[6] = L1210, host BDF1, MTZ 5 mg/kg ip days 1.2.3
[7] = chronic, first pair of Table 4: MTZ 5 ip days 1,2, in combination CRON 200 same time as MTZ
[8] = chronic, second series of Table 4: MTZ 5 ip days 1,2, in combination CRON 200 same time as MTZ
[9] = M, MTZ 4 mg/kg iv x 3, days 1.2.3, in combination CRON 200 mg/kg, mixed as one injection

SMILES: COc1cccc2c1C(=O)c1c(O)c3c(c(O)c1C2=O)C[C@@](O)(C(=O)CO)C[C@@H]3O[C@H]1C[C@H](N)[C@H](O)[C@H](C)O1 [ADR, adriamycin]
- DEATHS L1210 (leukaemia L1210; Table 11: BDF ♀ 20g, L1210 s.c., 8/group, i.p. days 1, 2, 3, ADR 4.0 mg/kg, in combination CRON 200): 8
- DEATHS L1210 (leukaemia L1210; Table 11: BDF ♀ 20g, L1210 s.c., 8/group, i.p. days 1, 2, 3, ADR 6.0 mg/kg, in combination CRON 200): 8
- DEATHS L1210 (leukaemia L1210; Table 11: BDF ♀ 20g, L1210 s.c., 8/group, i.p. days 1, 2, 3, ADR 8.0 mg/kg, in combination CRON 200): 8
- DEATHS L1210 (leukaemia L1210; Table 12: BDF ♂ 35g (6/12 old), L1210 s.c., 8/group, i.p. days 1, 2, 3, ADR 6.0 mg/kg): 1
- DEATHS TOXICITY (leukaemia L1210; Table 12: BDF ♂ 35g (6/12 old), L1210 s.c., 8/group, i.p. days 1, 2, 3, ADR 6.0 mg/kg, in combination CRON 200): 7
- DEATHS TOXICITY (leukaemia L1210; Table 12: BDF ♂ 35g (6/12 old), L1210 s.c., 8/group, i.p. days 1, 2, 3, ADR 8.0 mg/kg, in combination CRON 200): 8
- DEATHS TOXICITY (leukaemia L1210; Table 12: BDF ♂ 35g (6/12 old), L1210 s.c., 8/group, i.p. days 1, 2, 3, ADR 10.0 mg/kg, in combination CRON (dose not given)): 8
- COMMENTS (leukaemia L1210; Table 12: BDF ♂ 35g (6/12 old), L1210 s.c., i.p. days 1, 2, 3, ADR 8.0 mg/kg): Toxic
- COMMENTS (leukaemia L1210; Table 12: BDF ♂ 35g (6/12 old), L1210 s.c., i.p. days 1, 2, 3, ADR 10.0 mg/kg, bracket spans ADR and ADR/CRON lines): ) Toxic
- DEATHS TOXICITY (leukaemia L1210; Table 13: BDF ♀ 25g (2-3/12 old), L1210 s.c., 7/group, i.p. days 1, 2, 3, ADR 10.0 mg/kg, in combination CRON 200): 7
- DEATHS TOXICITY (leukaemia L1210; Table 13: BDF ♀ 25g (2-3/12 old), L1210 s.c., 7/group, i.p. days 1, 2, 3, ADR 12.5 mg/kg, in combination CRON 200): 7
- DEATHS TOXICITY (leukaemia L1210; Table 13: BDF ♀ 25g (2-3/12 old), L1210 s.c., 7/group, i.p. days 1, 2, 3, ADR 15.0 mg/kg, in combination CRON (dose not given)): 7
- COMMENTS (leukaemia L1210; Table 13: BDF ♀ 25g (2-3/12 old), L1210 s.c., i.p. days 1, 2, 3, ADR 12.5 mg/kg, bracket spans ADR and ADR/CRON lines): } Toxic
- COMMENTS (leukaemia L1210; Table 13: BDF ♀ 25g (2-3/12 old), L1210 s.c., i.p. days 1, 2, 3, ADR 15.0 mg/kg, bracket spans ADR and ADR/CRON lines): } Toxic
- MST (leukaemia L1210; Table 11: BDF ♀ 20g, L1210 s.c., i.p. days 1, 2, 3, ADR 4.0 mg/kg, in combination CRON 200, control 6.8): 10.8
- MST (leukaemia L1210; Table 11: BDF ♀ 20g, L1210 s.c., i.p. days 1, 2, 3, ADR 6.0 mg/kg, in combination CRON 200, control 6.8): 9.7
- MST (leukaemia L1210; Table 11: BDF ♀ 20g, L1210 s.c., i.p. days 1, 2, 3, ADR 8.0 mg/kg, in combination CRON 200, control 6.8): 11.8
- MST (leukaemia L1210; Table 12: BDF ♂ 35g (6/12 old), L1210 s.c., i.p. days 1, 2, 3, ADR 6.0 mg/kg, in combination CRON 200, control 7.0): 9.38
- MST (leukaemia L1210; Table 12: BDF ♂ 35g (6/12 old), L1210 s.c., i.p. days 1, 2, 3, ADR 8.0 mg/kg, in combination CRON 200, control 7.0): 5.8
- MST (leukaemia L1210; Table 12: BDF ♂ 35g (6/12 old), L1210 s.c., i.p. days 1, 2, 3, ADR 10.0 mg/kg, in combination CRON (dose not given), control 7.0): 5.5
- MST (leukaemia L1210; Table 13: BDF ♀ 25g (2-3/12 old), L1210 s.c., i.p. days 1, 2, 3, ADR 10.0 mg/kg, in combination CRON 200, control 10.6): 10.3
- MST (leukaemia L1210; Table 13: BDF ♀ 25g (2-3/12 old), L1210 s.c., i.p. days 1, 2, 3, ADR 12.5 mg/kg, in combination CRON 200, control 10.6): 5.4
- MST (leukaemia L1210; Table 13: BDF ♀ 25g (2-3/12 old), L1210 s.c., i.p. days 1, 2, 3, ADR 15.0 mg/kg, in combination CRON (dose not given), control 10.6): 5.1
- T/C (leukaemia L1210; Table 11: BDF ♀ 20g, L1210 s.c., i.p. days 1, 2, 3, ADR 4.0 mg/kg, in combination CRON 200): 159
- T/C (leukaemia L1210; Table 11: BDF ♀ 20g, L1210 s.c., i.p. days 1, 2, 3, ADR 6.0 mg/kg, in combination CRON 200): 135
- T/C (leukaemia L1210; Table 11: BDF ♀ 20g, L1210 s.c., i.p. days 1, 2, 3, ADR 8.0 mg/kg, in combination CRON 200): 174
- T/C (leukaemia L1210; Table 12: BDF ♂ 35g (6/12 old), L1210 s.c., i.p. days 1, 2, 3, ADR 6.0 mg/kg, in combination CRON 200): 134
- T/C (leukaemia L1210; Table 12: BDF ♂ 35g (6/12 old), L1210 s.c., i.p. days 1, 2, 3, ADR 8.0 mg/kg, in combination CRON 200): 83
- T/C (leukaemia L1210; Table 12: BDF ♂ 35g (6/12 old), L1210 s.c., i.p. days 1, 2, 3, ADR 10.0 mg/kg, in combination CRON (dose not given)): 79
- T/C (leukaemia L1210; Table 13: BDF ♀ 25g (2-3/12 old), L1210 s.c., i.p. days 1, 2, 3, ADR 10.0 mg/kg, in combination CRON 200): 97
- T/C (leukaemia L1210; Table 13: BDF ♀ 25g (2-3/12 old), L1210 s.c., i.p. days 1, 2, 3, ADR 12.5 mg/kg, in combination CRON 200): 51
- T/C (leukaemia L1210; Table 13: BDF ♀ 25g (2-3/12 old), L1210 s.c., i.p. days 1, 2, 3, ADR 15.0 mg/kg, in combination CRON (dose not given)): 48
- COMMENTS (survival) ([1]; C57Bl mice, 3LL s.c., 8/group, ADR 3 mg/kg i.p. days 6-10, in combination CRN 200 mg/kg): All ADR alone animals dead by d17

SMILES: CO[C@@]12[C@H](COC(N)=O)C3=C(C(=O)C(C)=C(N)C3=O)N1C[C@@H]1N[C@@H]12 [MMC, Mitomycin C]
- SURVIVORS 14d (leukaemia L1210; Table 15: BDF mice, L1210 s.c., 8/group, i.p. days 1, 2, 3, MMC 5 mg/kg, in combination CRN 200 mg/kg): 1
- MST (leukaemia L1210; Table 15: BDF mice, L1210 s.c., i.p. days 1, 2, 3, MMC 5 mg/kg, in combination CRN 200 mg/kg, control 7.1): 7.0

SMILES: O=C1c2c(O)ccc(O)c2C(=O)c2c(NCCNCCO)ccc(NCCNCCO)c21 [MTZ, mitozantrone]
- SURVIVAL (mean days) (leukaemia L1210; [5]): 6.14 days
- SURVIVORS No. at 60 d (leukaemia L1210; [5]): 1/8
- SURVIVAL (mean days) (leukaemia L1210; [6]): 17.1 days
- SURVIVORS No. at 60 d (leukaemia L1210; [6]): 2/8
- SURVIVORS No. at 60 d (leukaemia L1210; L1210, host BDF1, MTZ 5 mg/kg ip days 3.4.5, CMC-controls 0/8): 0/8
- SURVIVAL (mean days) (leukaemia L1210; L1210, host BDF1, MTZ 5 mg/kg ip days 3.4.5, CMC-controls 8.7): 25.2 days
- SURVIVORS No. at 60 d (leukaemia L1210; L1210, host DBA, MTZ 5 mg/kg ip days 2.3.4, CMC-controls 0/6): 0/6
- SURVIVAL (mean days) (leukaemia L1210; L1210, host DBA, MTZ 5 mg/kg ip days 2.3.4, CMC-controls 7.2): 16.8 days
- mice died by day 14 ([1]; 3LL in flank, mitozantrone 3.0 mg/kg for 5 days, day 5 to 9 after implantation): 7/8
- SURVIVAL (mean days) [2, 7]: 9 days
- SURVIVORS No.at 30 d [2, 7]: 0/6
- SURVIVAL (mean days) [2, 8]: 11 days
- SURVIVORS No.at 30 d [2, 8]: 0/6
- SURVIVAL (mean days) [2, 9]: 7.8 days
- SURVIVORS d.30 [2, 9]: 0/5
- SURVIVORS No.at 30 d [3]: 0/8
- SURVIVAL (mean days) ([3]; in combination CRON 200 mg/kg, CR same time MTZ): 8.8 days
- MEAN VALUES OF INDIVIDUAL ANIMALS RBC x 10¹²/l ([4]; Day 5., controls 7.9): 7.3 x 10¹²/l
- MEAN VALUES OF INDIVIDUAL ANIMALS WBC X 10⁹/l ([4]; Day 5, controls 9.3): 3.5 X 10⁹/l
- MEAN VALUES OF INDIVIDUAL ANIMALS PLATELETS x 10⁹/l ([4]; Day 5, controls 632): 631 x 10⁹/l
- MEAN VALUES OF INDIVIDUAL ANIMALS PLATELETS x 10⁹/l ([4]; Day 7): 845 x 10⁹/l
- MEAN VALUES OF INDIVIDUAL ANIMALS RBC x 10¹²/l ([4]; Day 7): 7.0 x 10¹²/l
- MEAN VALUES OF INDIVIDUAL ANIMALS WBC X 10⁹/l ([4]; Day 7): 2.2 X 10⁹/l
- MEAN VALUES OF INDIVIDUAL ANIMALS WBC X 10⁹/l ([4]; Day 8, controls 5.2): 3.2 X 10⁹/l
- MEAN VALUES OF INDIVIDUAL ANIMALS RBC x 10¹²/l ([4]; Day 8, controls 7.2): 7.1 x 10¹²/l
- MEAN VALUES OF INDIVIDUAL ANIMALS PLATELETS x 10⁹/l ([4]; Day 8, controls 649): 1058 x 10⁹/l
